The experiment relates to opiate rich areas of rat brain. Briefly: In vivo labelling of rat brain determined by autoradiography. The conditions noted are these: i.v. in rats, preliminary. The protocol:
The radiolabelled products were stored at -20° C. and used within 1 week of purification. The material was dried down under a gentle stream of nitrogen and redissolved in normal saline prior to intravenous (IV) injection into rats (300 g, male Sprague-Dawley) in a volume of 100 μl/100 g body weight.
Cleavage of the 3-O-acetyl group of [^125 I]3-O-Acetylioxy ([^125 I]10) was performed starting with 315 μCi of [^125 I]3-O-Acetylioxydissolved in 50 μl of acetonitrile. To this solution at 25° C. was added 50 μl of concentrated aqueous ammonia solution and the reaction mixture was allowed to stand at 25° C. for 20 min. The reaction solvent was removed by careful evaporation under a stream of nitrogen. The residue was dissolved in 50 μl of 0.1% aqueous TFA/acetonitrile and purified by HPLC as described above for [^125 I]3-O-Acetylioxy to give [^125 I]1 (279 μCi, 88.5% yield). […] The [^125 I]ioxy eluted with the exact elution profile of unlabelled ioxy(1). The product was stored at -20° C. and used within 1 week of purification. The material was dried down under a gentle stream of nitrogen and redissolved in normal saline prior to intravenous (IV) injection into rats (300 g, male Sprague-Dawley) in a volume of 100 μl/100 g body weight.

As for `CC(=O)Oc1ccc2c3c1O[C@H]1[C@H]([125I])CC[C@@]4(O)[C@@H](C2)N(CC2CC2)CC[C@]314` [[^125 I]10, [^125 I]3-Acetoxy-6β-Iodo-14-Hydroxy-17-Cyclopropylmethyl-4,5α-Epoxymorphinan], the “in vivo labelling of rat brain” value was “could label opiate rich areas of rat brain”.

The values above are taken from US5336483A (priority 1993, dated 1994).
